This passage reports IC50 results from patent publication US11970493B2, “Autotaxin inhibitor compounds” (ILDONG PHARMACEUTICAL CO., LTD., priority 2020, dated 2024).

Structures can show the parent of a compound that is named as a salt.

The target in this assay is hATX/ENPP2 (Homo sapiens, UniProt Q13822). The assay can be described thus: hATX/ENPP2 biochemical assay using 16:0-LPC as substrate (Amplex Red/choline oxidase/HRP fluorescence). The following applies: hENPP2 2.5 nM, LPC (16:0) substrate. The procedure: The enzyme is diluted in 50 mM Tris-HCl pH 8.0, 140 mM NaCl, 5 mM CaCl2, 0.01% Triton X-100 in a total volume of 5 μL. The aqueous solution of enzyme is added to the wells and incubated with different concentrations of the compounds at room temperature for 15 min. The reaction is started by the addition of 5 μL of 80 μM LPC (16:0) and 10 μL of the detection mixture containing 200 μM Amplex Red, 10 U/mL choline oxidase and 4 U/mL HRP. Fluorescence at 590 nm was measured kinetically with excitation at 530 nm. The slope of the curve (from 60 to 70 min of the reaction time) was used to calculate the compounds' IC50 values.
The IC50 is the concentration that inhibits the measured activity by half. In turn, `CCc1nc2ccc(-c3cnc(C(=O)N4CC[C@H](O)C4)nc3)cn2c1N(C)c1nc(-c2ccc(F)cc2)c(C#N)s1` [Compound 48, (S)-2-((2-ethyl-6-(2-(3-hydroxypyrrolidine-1-carbonyl)pyrimidin-5-yl)imidazo[1,2-a]pyridin-3-yl)(methyl)amino)-4-(4-fluorophenyl) thiazole-5-carbonitrile] registered a concentration for half-maximal inhibition (IC50) of 20 to 200 nM.

As for `CCc1nc2ccc(-c3cnc(C(=O)N4CC[C@@H](O)C4)nc3)cn2c1N(C)c1nc(-c2ccc(F)cc2)c(C#N)s1` [Compound 49, (R)-2-((2-ethyl-6-(2-(3-hydroxypyrrolidine-1-carbonyl)pyrimidin-5-yl)imidazo[1,2-a]pyridin-3-yl)(methyl)amino)-4-(4-fluorophenyl) thiazole-5-carbonitrile], the IC50 is 20 to 200 nM.

In turn, `CCc1nc2ccc(-c3cnc(C(=O)NC4CNC4)nc3)cn2c1N(C)c1nc(-c2ccc(F)cc2)c(C#N)s1` [Compound 50, N-(azetidin-3-yl)-5-(3-((5-cyano-4-(4-fluorophenyl)thiazol-2-yl) (methyl)amino)-2-ethylimidazo[1,2-a]pyridin-6-yl)pyrimidine-2-carboxamide] showed an IC50 of 20 to 200 nM.

With `CCc1nc2ccc(-c3cnc(C(=O)NC4CCNCC4)nc3)cn2c1N(C)c1nc(-c2ccc(F)cc2)c(C#N)s1` [Compound 51, 5-(3-((5-cyano-4-(4-fluorophenyl)thiazol-2-yl) (methyl)amino)-2-ethylimidazo[1,2-a]pyridin-6-yl)-N-(piperidin-4-yl)pyrimidine-2-carboxamide], the IC50 was in the range of 20 to 200 nM.

Consider `CCc1nc2ccc(-c3cnc(CC(=O)N4CC(O)C4)nc3)cn2c1N(C)c1nc(-c2ccc(F)cc2)c(C#N)s1` [Compound 52, 2-((2-ethyl-6-(2-(2-(3-hydroxyazetidin-1-yl)-2-oxoethyl)pyrimidin-5-yl)imidazo[1,2-a]pyridin-3-yl)(methyl)amino)-4-(4-fluorophenyl)thiazole-5-carbonitrile], for which the IC50 lay in the range of 20 to 200 nM.

Compound `CCc1nc2ccc(-c3cnc(CC(=O)N4CC(NC5CNC5)C4)nc3)cn2c1N(C)c1nc(-c2ccc(F)cc2)c(C#N)s1` [Compound 53, 2-((6-(2-(2-(3-(azetidin-3-ylamino)azetidin-1-yl)-2-oxoethyl)pyrimidin-5-yl)-2-ethylimidazo[1,2-a]pyridin-3-yl)(methyl)amino)-4-(4-fluorophenyl)thiazole-5-carbonitrile] yielded a 50% inhibitory concentration (IC50) of 20 to 200 nM.

In turn, `CCc1nc2ccc(-c3cnc(CC(=O)N4CC(NC)C4)nc3)cn2c1N(C)c1nc(-c2ccc(F)cc2)c(C#N)s1` [Compound 54, 2-((2-ethyl-6-(2-(2-(3-(methylamino)azetidin-1-yl)-2-oxoethyl)pyrimidin-5-yl)imidazo[1,2-a]pyridin-3-yl)(methyl)amino)-4-(4-fluorophenyl) thiazole-5-carbonitrile] yielded an IC50 of 20 to 200 nM.

`CCc1nc2ccc(-c3cnc(CC(=O)N4CC[C@H](O)C4)nc3)cn2c1N(C)c1nc(-c2ccc(F)cc2)c(C#N)s1` [Compound 55, (S)-2-((2-ethyl-6-(2-(2-(3-hydroxypyrrolidin-1-yl)-2-oxoethyl)pyrimidin-5-yl)imidazo[1,2-a]pyridin-3-yl)(methyl)amino)-4-(4-fluorophenyl)thiazole-5-carbonitrile]: the IC50 is 20 to 200 nM.

In turn, `CCc1nc2ccc(-c3cnc(CC(=O)N4CC[C@@H](O)C4)nc3)cn2c1N(C)c1nc(-c2ccc(F)cc2)c(C#N)s1` [Compound 56, (R)-2-((2-ethyl-6-(2-(2-(3-hydroxypyrrolidin-1-yl)-2-oxoethyl)pyrimidin-5-yl)imidazo[1,2-a]pyridin-3-yl)(methyl)amino)-4-(4-fluorophenyl)thiazole-5-carbonitrile] gave an IC50 of 20 to 200 nM.

Consider `CCc1nc2ccc(-c3cnc(CC(=O)N4CCC(O)CC4)nc3)cn2c1N(C)c1nc(-c2ccc(F)cc2)c(C#N)s1` [Compound 57, 2-((2-ethyl-6-(2-(2-(4-hydroxypiperidin-1-yl)-2-oxoethyl)pyrimidin-5-yl)imidazo[1,2-a]pyridin-3-yl)(methyl)amino)-4-(4-fluorophenyl) thiazole-5-carbonitrile], for which the IC50 lay in the range of 20 to 200 nM.

`CCc1nc2ccc(-c3cnc(CC(=O)N4CCNCC4)nc3)cn2c1N(C)c1nc(-c2ccc(F)cc2)c(C#N)s1` [Compound 58, 2-((2-ethyl-6-(2-(2-oxo-2-(piperazin-1-yl)ethyl)pyrimidin-5-yl)imidazo[1,2-a]pyridin-3-yl)(methyl)amino)-4-(4-fluorophenyl)thiazole-5-carbonitrile] had an IC50 of 20 to 200 nM.

Compound `CCc1nc2ccc(-c3cnc(CC(=O)N4CCOCC4)nc3)cn2c1N(C)c1nc(-c2ccc(F)cc2)c(C#N)s1` [Compound 59, 2-((2-ethyl-6-(2-(2-morpholino-2-oxoethyl)pyrimidin-5-yl)imidazo[1,2-a]pyridin-3-yl)(methyl)amino)-4-(4-fluorophenyl)thiazole-5-carbonitrile] gave an IC50 of 20 to 200 nM.

`CCc1nc2ccc(-c3cnc(CC(N)=O)nc3)cn2c1N(C)c1nc(-c2ccc(F)cc2)c(C#N)s1` [Compound 60, 2-(5-(3-((5-cyano-4-(4-fluorophenyl)thiazol-2-yl)(methyl)amino)-2-ethylimidazo[1,2-a]pyridin-6-yl)pyrimidin-2-yl)acetamide] registered an IC50 of 20 to 200 nM.

As for `CCc1nc2ccc(-c3cnc(CC(=O)NC)nc3)cn2c1N(C)c1nc(-c2ccc(F)cc2)c(C#N)s1` [Compound 61, 2-(5-(3-((5-cyano-4-(4-fluorophenyl)thiazol-2-yl)(methyl)amino)-2-ethylimidazo[1,2-a]pyridin-6-yl)pyrimidin-2-yl)-N-methyl acetamide], the IC50 was 20 to 200 nM.

The compound `CCc1nc2ccc(-c3cnc(CC(=O)NC4CC4)nc3)cn2c1N(C)c1nc(-c2ccc(F)cc2)c(C#N)s1` [Compound 62, 2-(5-(3-((5-cyano-4-(4-fluorophenyl)thiazol-2-yl)(methyl)amino)-2-ethylimidazo[1,2-a]pyridin-6-yl)pyrimidin-2-yl)-N-cyclopropyl acetamide] displayed an IC50 of 20 to 200 nM.

In turn, `CCc1nc2ccc(-c3cnc(CC(=O)NC4CNC4)nc3)cn2c1N(C)c1nc(-c2ccc(F)cc2)c(C#N)s1` [Compound 63, N-(azetidin-3-yl)-2-(5-(3-((5-cyano-4-(4-fluorophenyl)thiazol-2-yl)(methyl)amino)-2-ethylimidazo[1,2-a]pyridin-6-yl)pyrimidin-2-yl)acetamide] had an IC50 above 200 nM.

Consider `CCc1nc2ccc(-c3cnc(CC(=O)NC4(C#N)CC4)nc3)cn2c1N(C)c1nc(-c2ccc(F)cc2)c(C#N)s1` [Compound 64, 2-(5-(3-((5-cyano-4-(4-fluorophenyl)thiazol-2-yl)(methyl)amino)-2-ethylimidazo[1,2-a]pyridin-6-yl)pyrimidin-2-yl)-N-(1-cyanocyclopropyl)acetamide], for which the half-maximal inhibitory concentration (IC50) lay in the range of 20 to 200 nM.

`CCc1nc2ccc(-c3cnc(CC(=O)NC4CCNCC4)nc3)cn2c1N(C)c1nc(-c2ccc(F)cc2)c(C#N)s1` [Compound 65, 2-(5-(3-((5-cyano-4-(4-fluorophenyl)thiazol-2-yl)(methyl)amino)-2-ethylimidazo [1,2-a]pyridin-6-yl)pyrimidin-2-yl)-N-(piperidin-4-yl)acetamide] returned an IC50 of 20 to 200 nM.

The compound `CCc1nc2ccc(-c3cnc(N4CCN(C(=O)NC5CCNCC5)CC4)nc3)cn2c1N(C)c1nc(-c2ccc(F)cc2)c(C#N)s1` [Compound 67, 4-(5-(3-((5-cyano-4-(4-fluorophenyl)thiazol-2-yl)(methyl)amino)-2-ethylimidazo[1,2-a]pyridin-6-yl)pyrimidin-2-yl)-N-(piperidin-4-yl)piperazine-1-carboxamide] showed an IC50 of 20 to 200 nM.

For the compound `CCc1nc2ccc(-c3cnc(N4CCC(NC5CNC5)CC4)nc3)cn2c1N(C)c1nc(-c2ccc(F)cc2)c(C#N)s1` [Compound 68 formate, 2-((6-(2-(4-(azetidin-3-ylamino)piperidin-1-yl)pyrimidin-5-yl)-2-ethylimidazo[1,2-a]pyridin-3-yl)(methyl)amino)-4-(4-fluorophenyl)thiazole-5-carbonitrile formate], the IC50 was at most 20 nM.

As for `CCc1nc2ccc(-c3cnc(N4CCC(NC5CCNCC5)CC4)nc3)cn2c1N(C)c1nc(-c2ccc(F)cc2)c(C#N)s1` [Compound 69 formate, 2-((2-ethyl-6-(2-(4-(piperidin-4-ylamino)piperidin-1-yl)pyrimidin-5-yl)imidazo[1,2-a]pyridin-3-yl)(methyl)amino)-4-(4-fluorophenyl) thiazole-5-carbonitrile formate], the IC50 was at most 20 nM.

`CCc1nc2ccc(-c3cnc(N4CCC(C(=O)NC5CNC5)CC4)nc3)cn2c1N(C)c1nc(-c2ccc(F)cc2)c(C#N)s1` [Compound 72 hydrochloride, N-(azetidin-3-yl)-1-(5-(3-((5-cyano-4-(4-fluorophenyl)thiazol-2-yl)(methyl)amino)-2-ethylimidazo[1,2-a]pyridin-6-yl)pyrimidin-2-yl)piperidine-4-carboxamide hydrochloride] yielded an IC50 of at most 20 nM.

As to `CCc1nc2ccc(-c3cnc(N4CCC(C(=O)NC5CCNCC5)CC4)nc3)cn2c1N(C)c1nc(-c2ccc(F)cc2)c(C#N)s1` [Compound 73, 1-(5-(3-((5-cyano-4-(4-fluorophenyl)thiazol-2-yl)(methyl)amino)-2-ethylimidazo[1,2-a]pyridin-6-yl)pyrimidin-2-yl)-N-(piperidin-4-yl)piperidine-4-carboxamide], the IC50 is at most 20 nM.

`CCc1nc2ccc(-c3cnc(N4CCC(NC(=O)[C@H]5C[C@H](O)CN5)CC4)nc3)cn2c1N(C)c1nc(-c2ccc(F)cc2)c(C#N)s1` [Compound 74, (2R,4S)—N-(1-(5-(3-((5-cyano-4-(4-fluorophenyl)thiazol-2-yl)(methyl)amino)-2-ethylimidazo[1,2-a]pyridin-6-yl)pyrimidin-2-yl)piperidin-4-yl)-4-hydroxypyrrolidine-2-carboxamide] showed a half-inhibitory concentration (IC50) of at most 20 nM.
